Assay results reported in the supplement of paper PMC10307832.

Key:
Assay in all cases: relative viability (nuclei count vs DMSO), 5 days (fraction); higher = more cells survive
Quizartinib = compound: CC(C)(C)c1cc(NC(=O)Nc2ccc(-c3cn4c(n3)sc3cc(OCCN5CCOCC5)ccc34)cc2)no1 [Quizartinib]
Method in brief: (§1)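 Nuclei counted with MetaXpress define viability as the ratio of treated to vehicle wells, given as a median across plates. The lung cancer cell lines were in 1536-well plates, pinned with five √10-spaced library-drug doses and imaged at 4× after 5 days and Hoechst staining. Plates passed with control CV below 25% and at least one doubling.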

YM155 = compound: COCC[n+]1c2c(n(Cc3cnccn3)c1C)C(=O)c1ccccc1C2=O [YM155]
Method in brief: as §1

YM155 + Pemetrexed = compound: COCC[n+]1c2c(n(Cc3cnccn3)c1C)C(=O)c1ccccc1C2=O [YM155] + Nc1nc2[nH]cc(CCc3ccc(C(=O)N[C@@H](CCC(=O)O)C(=O)O)cc3)c2c(=O)[nH]1 [Pemetrexed] (partner 0.2 µM)
Method in brief: (§2)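 Values are medians from duplicate plates. Each reflects relative viability, defined as the nuclei count of treated wells over that of vehicle wells. Lung cancer cell lines in 1536-well plates were pin-tool dosed one day after seeding with one drug alone or with a fixed anchor-drug dose plus five library-drug doses (not always all listed) in √10 steps, then fixed, stained and imaged at 4× after 5 days.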

Quizartinib + Alpelisib = compound: CC(C)(C)c1cc(NC(=O)Nc2ccc(-c3cn4c(n3)sc3cc(OCCN5CCOCC5)ccc34)cc2)no1 [Quizartinib] + Cc1nc(NC(=O)N2CCC[C@H]2C(N)=O)sc1-c1ccnc(C(C)(C)C(F)(F)F)c1 [Alpelisib] (partner 2 µM)
Method in brief: as §2

Row | Cell Line | relative viability (Quizartinib; 0.001 µM) | relative viability (Quizartinib; 0.003162 µM) | relative viability (Quizartinib; 0.01 µM) | relative viability (Quizartinib; 0.03162 µM) | relative viability (Quizartinib; 0.1 µM) | relative viability (YM155; 0.002 µM) | relative viability (YM155; 0.006325 µM) | relative viability (YM155; 0.02 µM) | relative viability (YM155; 0.06325 µM) | relative viability (YM155 + Pemetrexed; first compound 0.002 µM) | relative viability (YM155 + Pemetrexed; first compound 0.006325 µM) | relative viability (YM155 + Pemetrexed; first compound 0.02 µM) | relative viability (YM155 + Pemetrexed; first compound 0.06325 µM) | relative viability (Quizartinib + Alpelisib; first compound 0.001 µM) | relative viability (Quizartinib + Alpelisib; first compound 0.003162 µM) | relative viability (Quizartinib + Alpelisib; first compound 0.01 µM) | relative viability (Quizartinib + Alpelisib; first compound 0.03162 µM) | relative viability (Quizartinib + Alpelisib; first compound 0.1 µM)
1 | 201T | 1.01 | 1.01 | 0.987 | 0.98 | 0.934 | 0.922 | 1.01 | 1.01 | 0.998 | 0.31 | 0.406 | 0.298 | 0.28 | 0.759 | 0.957 | 0.988 | 0.987 | 0.982
2 | A549 | 0.751 | 0.976 | 0.928 | 0.884 | 1.05 | 1.02 | 0.984 | 0.995 | 0.906 |  |  |  |  | 0.661 | 0.763 | 0.849 |  | 0.833
3 | A-427 | 0.771 | 0.982 | 0.979 | 0.922 | 1.05 | 0.883 | 0.951 | 1.03 | 0.941 | 0.941 | 1.02 | 1 | 0.762 | 1.06 | 1 | 1.12 | 1.06 | 1.04
4 | ABC-1 | 0.771 | 0.825 | 0.817 | 0.673 | 0.913 | 0.707 | 0.61 | 0.396 | 0.219 |  |  |  |  | 0.951 | 0.996 | 1.02 | 0.497 | 1.12
5 | BEN | 0.906 | 0.982 | 0.94 | 0.813 | 0.972 | 0.899 | 0.972 | 1.09 | 1.11 | 0.63 | 0.839 | 0.934 | 0.908 | 0.919 | 0.863 | 1.05 | 0.795 | 0.969
6 | CAL-12T | 0.92 | 1.06 | 1.05 | 0.821 | 1.11 | 0.928 | 0.998 | 1.08 | 0.719 | 1.23 | 1.22 | 1.11 | 0.569 | 1.03 | 1.08 | 1.29 | 0.467 | 1.47
7 | COR-L23 | 0.952 | 0.939 | 0.992 | 0.979 | 1.05 | 0.988 | 0.912 | 0.689 | 0.281 | 0.194 | 0.198 | 0.18 | 0.136 | 0.725 | 0.708 | 0.843 | 0.61 | 0.759
8 | COR-L 105 | 0.864 | 0.961 | 0.906 | 0.87 | 1.05 | 0.914 | 0.804 | 0.912 | 0.692 | 1.01 | 1.04 | 1 | 0.602 | 0.751 | 0.898 | 1.12 | 0.527 | 1.05
9 | Calu-6 | 0.902 | 0.982 | 1.05 | 0.879 | 1.02 | 0.992 | 0.996 | 0.557 | 0.186 |  |  |  |  | 0.92 | 0.915 | 1 | 0.761 | 0.947
10 | ChaGo-K-1 | 0.773 | 1.05 | 1.01 | 0.851 | 1.05 | 0.906 | 1 | 0.987 | 0.918 | 0.261 | 0.243 | 0.26 | 0.254 |  |  |  |  | 
11 | EBC-1 | 0.891 | 0.871 | 0.981 | 0.922 | 0.977 | 0.954 | 0.971 | 1.07 | 1 |  |  |  |  | 0.664 | 0.708 | 0.89 | 0.915 | 0.812
12 | IA-LM | 0.889 | 0.992 | 1.11 | 0.924 | 0.933 | 0.864 | 0.969 | 1.04 | 0.764 |  |  |  |  | 0.695 | 0.761 | 0.808 | 0.789 | 0.844
13 | NCI-H522 | 0.874 | 1.09 | 1.04 | 0.901 | 0.97 | 0.913 | 0.923 | 1.08 | 0.997 | 0.841 | 0.938 | 0.92 | 0.899 |  |  |  |  | 
14 | NCI-H727 | 0.7 | 0.899 | 0.883 | 0.83 | 0.96 | 0.932 | 0.933 | 0.967 | 1.04 |  |  |  |  | 0.482 |  | 0.588 | 0.586 | 0.556
15 | NCI-H1299 | 0.949 | 1.01 | 1.02 | 1.03 | 1.03 | 0.984 | 0.977 | 1.01 | 1 |  |  |  |  |  | 1.01 | 1.11 | 1.06 | 0.986
16 | NCI-H1648 |  | 0.756 | 0.81 | 0.886 | 1.29 | 0.748 | 1.11 | 0.829 | 0.995 |  | 0.97 | 0.702 | 0.804 |  |  |  |  | 
17 | NCI-H1650 | 0.877 | 0.976 | 0.918 |  | 1 | 0.867 | 0.921 | 0.863 | 0.739 | 0.35 | 0.348 | 0.321 | 0.249 |  |  |  |  | 
18 | NCI-H1703 | 0.847 | 0.527 | 0.256 | 0.264 | 0.316 | 0.808 | 0.807 | 0.767 | 0.444 |  |  |  |  | 0.34 | 0.196 | 0.209 | 0.182 | 0.22
19 | NCI-H2342 | 0.953 | 0.992 | 1.02 | 0.88 | 1.06 | 0.947 | 0.997 | 0.996 | 0.949 | 0.75 | 0.742 | 0.764 | 0.788 |  |  |  |  | 
20 | SW 900 | 0.823 | 1.12 | 0.745 | 0.803 | 0.994 | 0.71 | 0.828 | 0.869 | 0.729 |  | 0.492 | 0.489 | 0.47 |  |  |  |  | 
